# Test results reported in patent US12421276B2 (priority 2016, dated 2025).
# Where “and” joins values, the source holds several entries; their conditions need not be identical. Equal values may be shown once. Read-outs that look alike come from different tables or passages of the source. Where a SMILES comes first, the peptide text is derived from it. [ ]: non-standard residue; d: D form. The star is where a group is joined. pY = N[CH](Cc1ccc(OP(=O)(O)O)cc1)C(=O)O; Hexanoyl = CCCCCC(=O)*; Ahx = NCCCCCC(=O)O
# What was measured:
# [1] = Plasma stability study, human plasma; format: in vitro ADME; details: Human plasma, 1 μM, 37° C.
# Description: (§1) Human and rat plasma (K2 EDTA) were obtained from Bioreclamation.
# (§2) Compounds were dissolved as 0.3 mM DMSO stocks. Compounds were transferred to the plasma at 1 μM on a 96-well deep well plate. After mixing, samples were transferred to several 96-well plates (25 μL/well), and incubated at 37° C. The extent of metabolism was calculated as the disappearance of the test compound, compared to the 0-min control reaction incubations. Propantheline was included as a positive control to verify assay performance.
# (§3) At each of the time points, 150 μL of quench solution (50% acetonitrile, 50% methanol with 0.05% formic acid) with internal standard (bucetin for positive ESI mode and warfarin for negative ESI mode) was transferred to each well. Plates were sealed and centrifuged at 4° C. for 15 minutes at 4000 rpm. The supernatant was transferred to fresh plates for LC/MS/MS analysis.
# (§4) Elution conditions are detailed in the table below.
# (§5) Initial rates of the clearance of test compounds were calculated using linear regression of semi-log plot of % remaining of compounds versus time. The elimination rate constant (equals to −slope) of the linear regression was then used to determine t½ values.
# [2] = Metabolic stability in simulated gastric fluid (SGF), pH 1.2, with or without pepsin; format: in vitro ADME; details: 5 μM, 37° C.; for half-life: simulated gi fluid
# Description: (§6) Metabolic Stability in SIF and SGF (Simulated Intestinal and Gastric Fluid)
# Buffer 1=SGF without enzyme
# Buffer 2=SGF with 0.32% pepsin
# (§7) SIF was prepared freshly with 8.7 mM NaOH, 28.65 mM NaH2PO4, 105.85 mM NaCl, with a final pH of 6.8. SGF was prepared freshly with 34.2 mM NaCl, with a final pH of 1.2. Enzymes such as pepsin or pancreatin were added to some buffers. Human and rat plasma (K2 EDTA) were purchased from BioreclamationIVT.
# (§8) Compounds were dissolved as 1.5 mM DMSO stocks. Compounds were transferred to SIF, SGF, or plasma at 5 μM on a 96-well deep well plate. After mixing, samples were transferred to several 96-well plates (25 μL/well), and incubated at 37° C. The extent of metabolism was calculated as the disappearance of the test compound, compared to the 0-min control reaction incubations. Candesartan Cilexetil and omeprazole were included as positive controls for SIF and SGF, respectively, to verify assay performance.
# as §3, with “(100% acetonitrile” for “(50% acetonitrile, 50% methanol”, “0.1%” for “0.05%”
# as §4, §5
# [3] = Plasma stability study, rat plasma; format: in vitro ADME; details: Rat plasma, 1 μM, 37° C.
# Description: as §1, §2, §3, §4, §5
# [4] = Metabolic stability in simulated intestinal fluid (SIF), pH 6.8, with or without pancreatin; format: in vitro ADME; details: 5 μM, 37° C.; for half-life: simulated gi fluid
# Description: as §6
# Buffer 3=SIF without enzyme
# Buffer 4=SIF with 1% pancreatin
# as §7, §8
# as §3, with “(100% acetonitrile” for “(50% acetonitrile, 50% methanol”, “0.1%” for “0.05%”
# as §4, §5
# [5] = format: in vivo, rat; details: rat, dosed as prodrug, 10 mg/kg equivalent of Base Structure
# Description: • 1. Eight (8) male JVC SD rats (purchased from Charles River Lab) were monitored daily for body condition and health status during the 3-5 days acclimation period. The rats were randomly assigned into […] (n=4). • 2. […] The dosed rats were individually placed into a metabolic cage, and have access to food and water at all times. The urine from each rat was collected daily from the metabolic cages, and kept in dry ice. • 4. At predose (0 min), 5 min, 15 min, 30 min, 1 hr, 2 hr, 8 hr, and 24 hr post dosing, approximately 200 ul blood samples were collected from each rat and transferred to EDTA tubes. • 5. The blood samples in EDTA vials were centrifuged at 4° C. and 6,000 rpm for 10 minutes to generate ˜100 μl of plasma per sample. Blood samples were processed as quickly as possible and remain no longer than 2 min at room temperature and no longer than 15 minutes at 4° C. prior to processing. • 6. All samples were transferred for bioanalytic assay using LCMS
# [6] = analyte Parent (Base Structure), Average
# [7] = analyte Parent (Base Structure), Combined (average ± std. dev.)
# [8] = analyte Parent (Base Structure), individual animals, 10 mg/kg
# [9] = analyte Prodrug, Combined (average ± std. dev.)
# [10] = analyte Prodrug, individual animals
structure (smiles),measurement,setting,value
CCCCCC(=O)N1C(Cc2ccc(OP(=O)([O-])[O-])cc2)C(=O)N(C(C(=O)NCCCCCC(N)=O)C(C)CC)C12CCN(C)CC2.[Na+].[Na+] (stereo not drawn) [Compound 2],half-life,[1],7.08 h
same,Plasma Stability (% Parent Remaining) 0 min,[1],100%
same,Plasma Stability (% Parent Remaining) 60 min,[1],113%
same,Plasma Stability (% Parent Remaining) 120 min,[1],90%
same,Plasma Stability (% Parent Remaining) 240 min,[1],72%
same,SGF Stability (pH 1.2) 0 min,[2]; +Pepsin (0.32%),100%
same,SGF Stability (pH 1.2) 60 min,[2]; +Pepsin (0.32%),94%
same,SGF Stability (pH 1.2) 120 min,[2]; +Pepsin (0.32%),89%
same,SGF Stability (pH 1.2) 240 min,[2]; +Pepsin (0.32%),73%
same,half-life,"[2]; pH 1.2, +Pepsin (0.32%)",8.62 h
same,half-life,"[2]; pH 1.2, −Pepsin",7.17 h
same,SGF Stability (pH 1.2) 0 min,[2]; −Pepsin,100%
same,SGF Stability (pH 1.2) 60 min,[2]; −Pepsin,84%
same,SGF Stability (pH 1.2) 120 min,[2]; −Pepsin,78%
same,SGF Stability (pH 1.2) 240 min,[2]; −Pepsin,67%
same,half-life,[3],18.1 h
same,Plasma Stability (% Parent Remaining) 0 min,[3],100%
same,Plasma Stability (% Parent Remaining) 60 min,[3],82%
same,Plasma Stability (% Parent Remaining) 120 min,[3],77%
same,Plasma Stability (% Parent Remaining) 240 min,[3],83%
same,SIF Stability (pH 6.8) 0 min,[4]; +Pancreatin (1%),100%
same,SIF Stability (pH 6.8) 60 min,[4]; +Pancreatin (1%),94%
same,SIF Stability (pH 6.8) 120 min,[4]; +Pancreatin (1%),51%
same,SIF Stability (pH 6.8) 240 min,[4]; +Pancreatin (1%),34%
same,half-life,"[4]; pH 6.8, +Pancreatin (1%)",2.37 h
same,half-life,"[4]; pH 6.8, −Pancreatin",13.4 h
same,SIF Stability (pH 6.8) 0 min,[4]; −Pancreatin,100%
same,SIF Stability (pH 6.8) 60 min,[4]; −Pancreatin,82%
same,SIF Stability (pH 6.8) 120 min,[4]; −Pancreatin,82%
same,SIF Stability (pH 6.8) 240 min,[4]; −Pancreatin,78%
same,Cl/F_obs,[5]; [6],0.2421 (mg/kg)/(ng/ml)/h
same,Vz/F_obs,[5]; [6],6.571 (mg/kg)/(ng/ml)
same,Cl/F_obs,[5]; [7],0.2 ± 0.1 (mg/kg)/(ng/ml)/h
same,Vz/F_obs,[5]; [7],6.6 ± 6.9 (mg/kg)/(ng/ml)
same,Cl/F_obs,[5]; [8],0.1263 (mg/kg)/(ng/ml)/h and 0.2902 (mg/kg)/(ng/ml)/h and 0.3099 (mg/kg)/(ng/ml)/h
same,Vz/F_obs,[5]; [8],0.6603 (mg/kg)/(ng/ml) and 4.961 (mg/kg)/(ng/ml) and 14.09 (mg/kg)/(ng/ml)
same,AUMC 0-inf_obs,"[5]; analyte Prodrug, Average",0 ng/ml * h^2
same,Cl/F_obs,"[5]; analyte Prodrug, Average",0 (mg/kg)/(ng/ml)/h
same,Lambda_z,"[5]; analyte Prodrug, Average",0 h⁻¹
same,Tlag,"[5]; analyte Prodrug, Average",0 h
same,Tmax,"[5]; analyte Prodrug, Average",0 h
same,Vz/F_obs,"[5]; analyte Prodrug, Average",0 (mg/kg)/(ng/ml)
same,AUMC 0-inf_obs,[5]; [9],0 ng/ml * h^2
same,Cl/F_obs,[5]; [9],0 (mg/kg)/(ng/ml)/h
same,Lambda_z,[5]; [9],0 h⁻¹
same,Tlag,[5]; [9],0 h
same,Tmax,[5]; [9],0 h
same,Vz/F_obs,[5]; [9],0 (mg/kg)/(ng/ml)
same,AUMC 0-inf_obs,[5]; [10],0 ng/ml * h^2
same,Cl/F_obs,[5]; [10],0 (mg/kg)/(ng/ml)/h
same,Lambda_z,[5]; [10],0 h⁻¹
same,Tlag,[5]; [10],0 h
same,Tmax,[5]; [10],0 h
same,Vz/F_obs,[5]; [10],0 (mg/kg)/(ng/ml)
CCCCCC(=O)NC(Cc1ccc(OP(=O)([O-])O)cc1)C(=O)NC(C(=O)NCCCCCC(N)=O)C(C)CC.[Na+] (stereo not drawn) [Compound A30] (Hexanoyl-[pY]-Ile-[Ahx]-NH2; configuration not given here),Plasma Stability Half-Life,[1],1.4 h
same,Plasma Stability (% Parent Remaining) 0 min,[1],100%
same,Plasma Stability (% Parent Remaining) 60 min,[1],36%
same,Plasma Stability (% Parent Remaining) 120 min,[1],20%
same,Plasma Stability (% Parent Remaining) 240 min,[1],12%
same,SGF Stability (pH 1.2) Half-Life (min),[2]; +Pepsin (0.32%),248.3 min
same,SGF Stability (pH 1.2) 0 min,[2]; +Pepsin (0.32%),100%
same,SGF Stability (pH 1.2) 60 min,[2]; +Pepsin (0.32%),95%
same,SGF Stability (pH 1.2) 120 min,[2]; +Pepsin (0.32%),64%
same,SGF Stability (pH 1.2) 240 min,[2]; +Pepsin (0.32%),54%
same,SGF Stability (pH 1.2) Half-Life (min),[2]; −Pepsin,1713.6 min
same,SGF Stability (pH 1.2) 0 min,[2]; −Pepsin,100%
same,SGF Stability (pH 1.2) 60 min,[2]; −Pepsin,95%
same,SGF Stability (pH 1.2) 120 min,[2]; −Pepsin,98%
same,SGF Stability (pH 1.2) 240 min,[2]; −Pepsin,89%
same,Plasma Stability Half-Life,[3],21.79 h
same,Plasma Stability (% Parent Remaining) 0 min,[3],100%
same,Plasma Stability (% Parent Remaining) 60 min,[3],88%
same,Plasma Stability (% Parent Remaining) 120 min,[3],87%
same,Plasma Stability (% Parent Remaining) 240 min,[3],86%
same,SIF Stability (pH 6.8) Half-Life (min),[4]; +Pancreatin (1%),156.6 min
same,SIF Stability (pH 6.8) 0 min,[4]; +Pancreatin (1%),100%
same,SIF Stability (pH 6.8) 60 min,[4]; +Pancreatin (1%),70%
same,SIF Stability (pH 6.8) 120 min,[4]; +Pancreatin (1%),51%
same,SIF Stability (pH 6.8) 240 min,[4]; +Pancreatin (1%),34%
same,SIF Stability (pH 6.8) Half-Life (min),[4]; −Pancreatin,68.4 min
same,SIF Stability (pH 6.8) 0 min,[4]; −Pancreatin,100%
same,SIF Stability (pH 6.8) 60 min,[4]; −Pancreatin,43%
same,SIF Stability (pH 6.8) 120 min,[4]; −Pancreatin,22%
same,SIF Stability (pH 6.8) 240 min,[4]; −Pancreatin,8%
